Legend:
Design in all cases: species or system AML cell lines (8); Primary HTS, single concentration about 10 uM, Cell Titer Glo viability; log10 luminescence, per cent inhibition relative to cycloheximide control
Conditions in all cases: 72 h, relative to cycloheximide control, log10 luminescence; inhibitor
CMK = system: CMK
ML-2 = system: ML-2
M07e = system: M07e
U937 = system: U937
CHRF288-11 = system: CHRF288-11
CMS = system: CMS
MV4-11 = system: MV4-11
MOLM-13 = system: MOLM-13

SMILES	CMK %inh (CMK)	ML-2 %inh (ML-2)	M07e %inh (M07e)	U937 %inh (U937)	CHRF288-11 %inh (CHRF288-11)	CMS %inh (CMS)	MV4-11 %inh (MV4-11)	MOLM-13 %inh (MOLM-13)
Nc1nccc(-c2c(-c3ccc(F)cc3)ncn2CCCN2CCOCC2)n1 [SJ000573180-1, TG19207-124A1]	-0.5604%	2.942%	1.031%	3.947%	-0.01823%	-3.18%	0.7283%	-0.9293%
CC1=C(C(=O)Nc2cc(Cl)c3[nH]ncc3c2)C(c2ccc(C(F)(F)F)cc2)CC(=O)N1 (centres unmarked) [SJ000573181-1, SD204573-088A4]	54.4%	13.01%	13.65%	8.409%	20.3%	8.733%	31.1%	4.804%
Nc1nccc(-c2c(-c3ccc(F)cc3)ncn2C2CCC(O)CC2)n1 (centres unmarked) [SJ000573182-1, MS27011-022A2]	25.82%	10.85%	6.63%	5.213%	23.09%	9.299%	24.38%	26.67%
O=C1NC(=O)C(c2ccccc2Cl)=C1Nc1cccc(O)c1 [SJ000573183-1, BS98679-018A5]	56.79%	39.83%	51.61%	51.74%	41.21%	26.93%	22.8%	67.3%
COc1cccc(-c2c[nH]c3c(N/N=C/c4ccncc4)ncnc23)c1 [SJ000573184-1, U18675/6/1]	96.73%	19.51%	38.1%	14.24%	52.41%	90.74%	58.64%	59.82%
NC(=O)c1sc(-n2cnc3cc(C(F)(F)F)ccc32)cc1OCc1ccccc1Br [SJ000573185-1, U19121/197/1]	3.577%	-0.4297%	-2.426%	-0.2413%	0.2512%	-1.069%	1.859%	0.4978%
CS(=O)(=O)Nc1cccc(-c2ccc3c(NC(=O)C4CC4)n[nH]c3c2)c1 [SJ000573187-1, VB100064-178A3]	72.59%	56.77%	29.33%	80.28%	25.27%	0.4745%	73.57%	75.64%
[O-][S+]1CCN(Cc2ccc(-c3ccc4ncnc(Nc5ccc(OCc6ccccc6)c(F)c5)c4c3)o2)CC1 [SJ000573188-1, U14859/145/2]	-1.588%	-0.4978%	-1.871%	-0.5877%	1.525%	-1.026%	1.608%	2.781%
O=C(Nc1n[nH]c2cc(-c3cc(F)ccc3F)ccc12)C1CC1 [SJ000573189-1, VB100064-133A2]	46.32%	4.109%	13.96%	8.276%	23.56%	3.394%	1.045%	3.339%
CC1(C)CC(n2cnc(-c3ccc(F)cc3)c2-c2ccnc(N)n2)CC(C)(C)N1 [SJ000573190-1, JB19236-188C1]	5.841%	5.936%	10.18%	-2.021%	9.345%	-2.621%	1.547%	0.169%
